Laboratory results: patent US20250214973A1, “1,4,5-TRISUBSTITUTED-1,2,3-TRIAZOLES AND USES THEREOF” (UNIVERSITY OF PUERTO RICO, priority 2022, published 2025)

What was measured:
[1] = test system: RAW264.7 macrophage cell line; assay: Wound healing assay; type: cell-based, murine; settings: Mus musculus, read-out: inhibition of wound closure, RAW264.7
Description: (§1) Mircrographs were digitally acquired at 0, 12, and 24 hours and the area of the wound quantified relative to the distance at time 0. n=3.
Murine macrophage cell line, RAW264.7, plated at equal density were subjected to a scratch in the center and treated with 4c at 0, 150 nM, 250 nM, or 500 nM. Mircrographs were digitally acquired at 0, 12, and 24 hours and the area of the wound quantified relative to the distance at time 0. n=3.

[2] = test system: A549 lung adenocarcinoma cells; assay: EGF-induced membrane ruffles, F-actin staining; type: cell-based; settings: 24 h
Description: Cells were stimulated with EGF (200 ng/ml) for 5 min, and fixed and stained with Rhodamine Phalloidin for F-actin.
Cells were grown on glass coverslips and treated with vehicle or 4c for 24h. Lung cancer cells that were stimulated with epidermal growth factor (EGF) were serum starved prior to stimulation with 200 ng/ml EGF for 5 min. Following fixation in 4% formaldehyde, cells were stained for F-actin with Rhodamine phalloidin and visualized by fluorescence microscopy. 5 random fields were scored for the number of ruffles.

[3] = test system: human mammary epithelial cells (HMEC); assay: Cell viability assay (MTT); type: cell-based; settings: 0-1000 nM
Description: Cells were treated with 4c at concentrations ranging from 0-1000 nM. Cell viability was assessed by a MTT assay. n=2.
(§2) Equal number of cells were seeded in a 24 well plate and incubated with vehicle or compounds according to this disclosure at concentrations between 1 and 0.001 nM for 72 and 120 hrs. Using CellTiter 96 Non-Radioactive Cell Proliferation Assay (Promega, Corp.) according to manufactures' instructions, formazan was used as an indicator of viable cells at an absorbance 570 nm in a Tecan Microplate Reader M100. Data was calculated as fold change from vehicle and fitted using the 4′parameter logic nonlinear regression model in GraphPad Prism software. (n=3 biologic replicates: with 3 technical replicates each).

MDA-MB-435 = assay: Initial screening, SRB assay GI50; type: cell-based; settings: Homo sapiens, 48 hrs, read-out: MDA-MB435 GI50
Description: (§3) For initial screening, the GIso of compounds 4a-4h in the cell lines MDA-MB-231, MDA-MB-435 and MCF-7 was determined via the SRB-assay for 48 hrs as follows:
(§4) A stock solution of compounds was prepared at 50 mM in 100% DMSO. For cells preparation, a flask of 75 cm^2 or 25 cm^2 were used for 2.6×10^5 cells/mL or 1.44×10^5 cells/mL, respectively, with an 80-90% of confluence. Cells were washed with PBS and trypsinized. The concentration of cells was determined using a 1:2 dilutions with Trypan Blue and a hemocytometer. After cell count, the concentration was adjusted to have a 7.0-10.0×10^4 cells/mL. Approximately 100 μL of cells suspension, compounds, control positive and control negative were added in triplicates to a 96 well plate. Positive control used was doxorubicin, and the negative control was DMSO 0.1%. All compounds (4a-h) at 50, 25, 12.5, 6.3, and 1.6 μM were incubated with cells at 37° C. for 48 hrs. For fixation, cold TCA 50% was used and incubated at 4° C. for 1 h. Wells were washed and dried prior to tincture with 100 μL of SRB 0.4%. To remove excess of SRB, acetic acid was used. For analysis, TRIS-BASE Solution (pH=10.5) was used and shaken prior to reading using an ELISA reader at 540 nm and the software SoftMax Pro 4.8. For each compound, 50% growth inhibition (GI50) was calculated from Sigmoidal dose-response curves (variable-slope) that were generated with data obtained from experiments carried out in triplicates (GI50 values were generated with GraphPad Prism V. 6.02, GraphPad Software, Inc.).

MDA-MB-231 [4] = assay: Initial screening, SRB assay GI50; type: cell-based; settings: Homo sapiens, 48 hrs
Description: as §3, §4

MCF-7 = assay: Initial screening, SRB assay GI50; type: cell-based; settings: Homo sapiens, MCF7, 48 hrs
Description: as §3, §4

MDA-MB-231 [5] = assay: Cell viability assay (MTT); type: cell-based; settings: Homo sapiens, MDA-MB-231
Description: Cells plated at equal density were treated at 500 nM of compounds. […]
Cells plated at equal density were treated at 250 nM of 4c at 250 nM.
Data from 3 biologic replicates each with 2 technical replicates. Four parameter dose-response curves generated using GraphPad Prism are shown.
Cell viability relative to vehicle (100%) is shown.
as §2, with “Equal number of cells were seeded in a 24 well plate and incubated with vehicle or compounds according to this disclosure at concentrations between 1 and 0.001 nM for 72 and 120 hrs.” left out
A range of compounds were tested by MTT assays for cell viability in MDA-MB-231 triple negative breast cancer (TNBC) cells and MDA-MB-435 HER2++ cancer cells.

Panc-1 = assay: Wound healing assay; type: cell-based; settings: Homo sapiens, 24 hr, read-out: inhibition of Panc-1 cell migration
Description: as §1
Panc-1 cells plated at equal density were subjected to a scratch in the center and treated with 4c at 0, 150 nM, 250 nM, or 500 nM. Mircrographs were digitally acquired at 0, 12, and 24 hours and the area of the wound quantified relative to the distance at time 0. n=3.

Structure (SMILES): CCn1c2ccccc2c2cc(-n3nnc(C(O)c4cccc(OC)c4)c3-c3ccccc3)ccc21 (centres unmarked) [Compound 4c, (1-(9-ethyl-9H-carbazol-3-yl)-5-phenyl-1H-1,2,3-triazol-4-yl) (3-methoxyphenyl) methanol]
- inhibition at 0.15 µM ([1]; 150 nM): 50%
- inhibition at […] ([1]; 250 nM): 80%
- inhibition at 0.5 µM ([1]; 500 nM): 90%
- reduction of membrane ruffles in response to EGF ([2]; 250 nM): 20%
- reduction of membrane ruffles in response to EGF ([2]; 500 nM): ~38%
- reduction of membrane ruffles in response to EGF ([2]; 1000 nM): 58%
- effect on non-transformed HMEC viability [3]: did not affect
- GI50 (MDA-MB-435): 1600 nM
- GI50 (MDA-MB-231 [4]): 17200 nM
- GI50 (MCF-7): 3200 nM
- cytotoxicity at 0.5 µM (MDA-MB-231 [5]; 500 nM, 72 hours, read-out: inhibition of MDA-MB-231 cell viability): < 50%
- GI50 (MDA-MB-231 [5]; summary over breast cancer cell lines, read-out: GI50 for breast cancer cell viability inhibition): ~300 nM
- inhibition at […] (Panc-1; 250 nM): ~40%
- inhibition at 0.5 µM (Panc-1; 500 nM): 75%
